Consider one compound from PMC8237267 (Journal of Medicinal Chemistry, 2021).

For assay [1], the system named is cleavage of PARP-1 and Caspase-3. Nature of the assay: Western blot of apoptosis markers in MV4-11 cells. Format: cell-based. Particulars: MV4-11, 6 h, 0.5 μM. The protocol:
Briefly, MV4-11 cells were incubated with inhibitors prior to cell lysis with radioimmunoprecipitation assay (RIPA) buffer (20 mM Tris pH 7.4, 150 mM NaCl, 0.5% deoxycholate, 1% Triton X-100, and 0.1% sodium dodecyl sulfate (SDS)). Total protein content was determined through a BCA assay (ThermoFisher), resolved via a 4–20% polyacrylamide SDS gel, and transferred to a nitrocellulose membrane (Bio-Rad). The membranes were blocked with a 5% solution (skimmed milk powder in PBS-T). This was followed by incubation at 4 °C (overnight) with the following antibodies: acetylated α-tubulin mouse monoclonal (MABT868, EMD Millipore), acetylated histone H3 (Ac-Lys18, 07–354, Sigma), PARP-1 (ab227244, Abcam), apoptosis Western blot cocktail (136812, Abcam), cleaved PARP-1 (ab32561, Abcam), and HSC70 (sc-7298, Santa Cruz). Following overnight incubation, horseradish peroxidase (HRP)-conjugated goat anti-mouse IgG secondary antibody (7076, Cell Signaling) or HRP-linked anti-rabbit IgG secondary antibody (7074, Cell Signaling) was applied to the membrane in a 1:5000 dilution. The bands were visualized using clarity Western ECL substrate luminal/enhancer solution and peroxide solution. Western blotting analysis was carried out using Image lab software (Bio-Rad).[47],[50],[70]

Assay [2] deals with T1, HDAC2 (Homo sapiens, UniProt Q92769).
T1 construct: The full-length human HDACs were recombinantly expressed and purified from SF9 insect cells; host or cells: SF9 insect cells
T1 sequence (Q92769 whole entry): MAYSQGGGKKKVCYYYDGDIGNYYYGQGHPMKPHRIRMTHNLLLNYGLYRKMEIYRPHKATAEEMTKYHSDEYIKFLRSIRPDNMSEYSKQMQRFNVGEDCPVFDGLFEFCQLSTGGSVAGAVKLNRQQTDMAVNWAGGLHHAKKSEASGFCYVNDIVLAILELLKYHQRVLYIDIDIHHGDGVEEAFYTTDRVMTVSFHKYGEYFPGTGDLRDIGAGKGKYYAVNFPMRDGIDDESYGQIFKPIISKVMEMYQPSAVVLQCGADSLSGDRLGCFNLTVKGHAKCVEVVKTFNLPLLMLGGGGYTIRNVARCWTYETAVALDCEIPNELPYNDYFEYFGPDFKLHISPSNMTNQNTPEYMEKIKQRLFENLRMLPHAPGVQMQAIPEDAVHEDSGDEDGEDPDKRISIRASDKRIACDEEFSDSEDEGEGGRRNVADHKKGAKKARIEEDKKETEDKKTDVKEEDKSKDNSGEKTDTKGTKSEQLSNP
Nature of the assay: HDAC EMSA activity assay (Nanosyn). It is filed as biochemical.

For `O=C(NO)c1ccc(CN(C2CC2)S(=O)(=O)c2cc(F)c(F)c(F)c2F)cc1` [Compound 14, 4-(((N-Cyclopropyl-2,3,4,5-tetrafluorophenyl)sulfonamido)methyl)-N-hydroxybenzamide], the “cleavage of PARP-1 and Caspase-3” value in assay [1] was “Cleavage of PARP-1 and Caspase-3”. Also, the IC50 in assay [2] is above 1 µM.
